This is an account of results in patent US12673946B2, “Pyrimidin-4(3H)-one derivatives as TRPV4 antagonists” (RaQualia Pharma Inc., priority 2020, dated 2026).

This experiment has as its target T1, human TRPV4 (Homo sapiens, UniProt Q9HBA0).
T1 construct: host or cells: tetracycline-inducible Flp-In T-REx 293 cells
The experiment in a line: Hypotonicity-induced Ca2+ influx (Fluo-4, FDSS). Type of experiment: cell-based. As to the method: Hypotonicity-Induced Ca^2+ Influx
TRPV4 channel activation/opening results in an influx of Ca^2+ (Liedtke, W. et al., 2000 (NPL 1)). The resulting changes in intracellular calcium are monitored using a Ca^2+ sensitive fluorescent dye Fluo-4 (Invitrogen). Dye loaded cells are treated with the test compounds for 5 minutes prior to the addition of a hypotonic solution and the inhibition of the hypotonicity-induced activation is recorded.
Forty microL of tetracycline-inducible Flp-In T-REx 293 cells (Invitrogen) stably expressing human TRPV4 are seeded onto the poly-D-lysine coated 384-well plate (Corning) at a density of 10,000 cells per well. The following day, TRPV4 expression is induced by adding 0.5 microg/mL tetracycline for 20-24 hours. On the day of the experiment, the media is removed and replaced with 40 microL of dye loading buffer [1 microM Fluo-4 AM (Invitrogen), 0.01% Pluronic F-127, and 20 mM HEPES in Hanks' balanced salt solutions (HBSS; Invitrogen)] and then the cells are incubated for 60 minutes at 25° C. Dye is then removed and replaced with 20 microL of assay buffer (20 mM HEPES in HBSS). Five minutes prior to the fluorescence measurement, 10 microL of test compound is added to the cells. Using the FDSS instrument (Hamamatsu Photonics), 30 microL of hypotonic solution (90 mM D-mannitol and 1.26 mM CaCl2 in ultrapure water) is added 30 seconds after the start of measurement. The calcium flux signal is recorded for a total of 4.5 minutes.

The mark [1] stands for this setting: Flp-In T-REx 293 cells expressing human TRPV4, examples listed under heading 'Human IC50<50 nM'.
The mark [2] stands for this setting: Flp-In T-REx 293 cells stably expressing human TRPV4, compounds listed by potency bin (<10 nM Tables 96-1/96-2, <3 nM Table 97).

T1 sequence (Q9HBA0 whole entry): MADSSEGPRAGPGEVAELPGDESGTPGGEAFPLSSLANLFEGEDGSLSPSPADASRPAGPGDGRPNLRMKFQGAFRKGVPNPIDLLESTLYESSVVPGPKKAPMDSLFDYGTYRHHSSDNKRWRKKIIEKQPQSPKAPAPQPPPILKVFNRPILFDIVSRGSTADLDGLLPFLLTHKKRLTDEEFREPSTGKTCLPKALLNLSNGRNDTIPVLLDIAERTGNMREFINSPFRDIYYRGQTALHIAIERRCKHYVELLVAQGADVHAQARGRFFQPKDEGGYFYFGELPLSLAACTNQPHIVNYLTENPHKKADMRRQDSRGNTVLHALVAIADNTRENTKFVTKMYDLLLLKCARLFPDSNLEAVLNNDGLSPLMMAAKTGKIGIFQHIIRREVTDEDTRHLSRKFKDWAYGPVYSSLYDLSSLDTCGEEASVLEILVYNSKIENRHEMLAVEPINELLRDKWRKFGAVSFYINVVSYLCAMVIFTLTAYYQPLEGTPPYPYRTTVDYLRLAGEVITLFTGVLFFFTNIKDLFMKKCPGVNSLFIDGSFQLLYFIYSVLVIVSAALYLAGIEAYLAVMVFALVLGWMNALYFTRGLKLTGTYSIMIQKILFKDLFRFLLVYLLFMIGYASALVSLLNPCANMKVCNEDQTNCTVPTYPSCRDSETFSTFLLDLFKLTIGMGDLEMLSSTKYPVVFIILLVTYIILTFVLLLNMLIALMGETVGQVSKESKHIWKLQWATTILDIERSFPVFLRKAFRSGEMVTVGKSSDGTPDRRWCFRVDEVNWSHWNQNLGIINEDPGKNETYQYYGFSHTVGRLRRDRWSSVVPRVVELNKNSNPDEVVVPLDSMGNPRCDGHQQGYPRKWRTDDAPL

In general, IC50 refers to the concentration that gives 50% inhibition. The low end stands for higher potency, the high end for lower potency. `CC(C)(C)c1cccc(C(O)C(=O)N2CCc3nc(C4(c5ccccc5)CC4)[nH]c(=O)c3C2)c1` (stereo not shown) [14-30] showed an IC50 under setting [1] below 50 nM.
Same read-out and setting: under `O=C(C(O)c1cccc(S(F)(F)(F)(F)F)c1)N1CCc2nc(C3(c4ccccc4)CC3)[nH]c(=O)c2C1` (stereo not shown) [14-31] stands below 50 nM; under `CC(C)c1cccc(C(O)C(=O)N2CCc3nc(C4(c5cccc(F)c5)CC4)[nH]c(=O)c3C2)c1` (stereo not shown) [14-32], below 50 nM.
Take `O=C(C(O)c1cccc(OCc2ccccc2)c1)N1CCc2nc(C3(c4cccc(Cl)c4)CC3)[nH]c(=O)c2C1` (stereo not shown) [14-106]: the IC50 runs as follows: under setting [1], below 50 nM; under setting [2], below 10 nM.
`CC(C)c1cccc(C2(c3nc4c(c(=O)[nH]3)CN(C(=O)C(O)c3cccc(C(C)(C)C)c3)CC4)CC2)c1` (stereo not shown) [14-107]: the IC50 is, setting by setting: under setting [1], below 50 nM; under setting [2], below 10 nM.
On the same counts, the results for `CC(C)c1cccc(C2(c3nc4c(c(=O)[nH]3)CN(C(=O)C(O)c3cccc(C(F)(F)F)c3F)CC4)CC2)c1` (stereo not shown) [14-109] are below 50 nM and below 10 nM.
Consider `CC(C)c1cccc(C2(c3nc4c(c(=O)[nH]3)CN(C(=O)C(O)c3cccc(Cl)c3F)CC4)CC2)c1` (stereo not shown) [14-110], for which the IC50 is below 50 nM under setting [1] and below 10 nM under setting [2].
For the molecule `O=C(C(O)c1cccc(OCc2ccccc2)c1)N1CCc2nc(C3(c4ccccc4)CC3)[nH]c(=O)c2C1` (stereo not shown) [14-111], under setting [1], the IC50 was below 50 nM.
The same measure, in the same setting: in the case of `O=C(Cc1cccc(-c2cccc(Cl)c2)c1)N1CCc2nc(C3(c4cccc(Cl)c4)CC3)[nH]c(=O)c2C1` [14-114] it was below 50 nM.
Same read-out and setting: under `N#Cc1ccc(-c2cccc(CC(=O)N3CCc4nc(C5(c6cccc(Cl)c6)CC5)[nH]c(=O)c4C3)c2)cc1` [14-115] stands below 50 nM; under `CC(C)(C)c1ccc(-c2cccc(CC(=O)N3CCc4nc(C5(c6cccc(Cl)c6)CC5)[nH]c(=O)c4C3)c2)cc1` [14-116], below 50 nM.
The same measure, in the same setting: in the case of `O=C(Cc1cccc(-c2ccc(C(F)(F)F)cc2)c1)N1CCc2nc(C3(c4cccc(Cl)c4)CC3)[nH]c(=O)c2C1` [14-117] it was below 50 nM; in that of `O=C(Cc1cccc(-c2ccc(OC(F)(F)F)cc2)c1)N1CCc2nc(C3(c4cccc(Cl)c4)CC3)[nH]c(=O)c2C1` [14-118], below 50 nM; in that of `O=C(Cc1cccc(-c2ccc(Cl)cc2)c1)N1CCc2nc(C3(c4cccc(Cl)c4)CC3)[nH]c(=O)c2C1` [14-119], below 50 nM.
Under setting [1], `O=C(Cc1cccc(-c2coc3ccccc23)c1)N1CCc2nc(C3(c4cccc(Cl)c4)CC3)[nH]c(=O)c2C1` [14-120] returned an IC50 below 50 nM.
The same measure, in the same setting: under `N#Cc1cc(Cl)cc(-c2cccc(CC(=O)N3CCc4nc(C5(c6cccc(Cl)c6)CC5)[nH]c(=O)c4C3)c2)c1` [14-121] stands below 50 nM.
Regarding `O=C(Cc1cccc(-c2cccc(C(F)(F)F)c2)c1)N1CCc2nc(C3(c4cccc(Cl)c4)CC3)[nH]c(=O)c2C1` [14-122], the IC50 under setting [1] was below 50 nM and the IC50 under setting [2] is below 10 nM.
In the same order, the values of `O=C([C@H](O)c1cccc(C(F)(F)F)c1)N1CCc2nc(C3(c4cc(C5CCCC5)cs4)CC3)[nH]c(=O)c2C1` [15-1] are below 50 nM and below 3 nM.
On the same counts, the results for `CC(C)c1csc(C2(c3nc4c(c(=O)[nH]3)CN(C(=O)[C@H](O)c3cccc(C(F)(F)F)c3)CC4)CC2)c1` [15-2] are below 50 nM and below 3 nM.
As for `O=C([C@H](O)c1cccc(C(F)(F)F)c1)N1CCc2nc(C3(c4cc(C5CCCCCC5)cs4)CC3)[nH]c(=O)c2C1` [15-3], the concentration for half-maximal inhibition (IC50) is, setting by setting: under setting [1], below 50 nM; under setting [2], below 3 nM.
On the same counts, the results for `O=C([C@H](O)c1cccc(C(F)(F)F)c1)N1CCc2nc(C3(c4cc(C5CCCCC5)cs4)CC3)[nH]c(=O)c2C1` [15-4] are below 50 nM and below 3 nM.
On the same counts, the results for `CCc1csc(C2(c3nc4c(c(=O)[nH]3)CN(C(=O)[C@H](O)c3cccc(C(F)(F)F)c3)CC4)CC2)c1` [15-5] are below 50 nM and below 10 nM.
On the same counts, the results for `O=C(C(O)c1cccc(-c2cccc(C(F)(F)F)c2)c1)N1CCc2nc(C3(c4cccs4)CC3)[nH]c(=O)c2C1` (stereo not shown) [15-6] are below 50 nM and below 10 nM.
Turning to `O=C([C@H](O)c1cccc(Cl)c1)N1CCc2nc(C3(c4cc(C5CCCCC5)cs4)CC3)[nH]c(=O)c2C1` [15-7], the IC50 is, setting by setting: under setting [1], below 50 nM; under setting [2], below 10 nM.
In the same order, the values of `CC(C)c1csc(C2(c3nc4c(c(=O)[nH]3)CN(C(=O)[C@H](O)c3cccc(Cl)c3)CC4)CC2)c1` [15-8] are below 50 nM and below 10 nM.
In the case of `O=C([C@H](O)c1cccc(C(F)(F)F)c1)N1CCc2nc(C3(c4cc(Br)cs4)CC3)[nH]c(=O)c2C1` [15-9], the IC50 is, setting by setting: under setting [1], below 50 nM; under setting [2], below 10 nM.
Under setting [1], `O=C(C(O)c1cccc(-c2ccc(Cl)cc2)c1)N1CCc2nc(C3(c4cccs4)CC3)[nH]c(=O)c2C1` (stereo not shown) [15-10] came in with an IC50 below 50 nM.
Same read-out and setting: under `O=C(C(O)c1cccc(-c2cccc(F)c2)c1)N1CCc2nc(C3(c4cccs4)CC3)[nH]c(=O)c2C1` (stereo not shown) [15-11] stands below 50 nM; under `O=C(C(O)c1cccc(SC(F)(F)F)c1)N1CCc2nc(C3(c4cccs4)CC3)[nH]c(=O)c2C1` (stereo not shown) [15-12], below 50 nM; under `O=C(C(O)c1cccc(S(F)(F)(F)(F)F)c1)N1CCc2nc(C3(c4cccs4)CC3)[nH]c(=O)c2C1` (stereo not shown) [15-13], below 50 nM.
With `O=C([C@H](O)c1cccc(Cl)c1)N1CCc2nc(C3(c4cc(Cl)cs4)CC3)[nH]c(=O)c2C1` [15-14], the IC50 under setting [1] was below 50 nM.
Still for that read-out and setting: under `O=C([C@H](O)c1cccc(Cl)c1)N1CCc2nc(C3(c4cc(C5CCOCC5)cs4)CC3)[nH]c(=O)c2C1` [15-15] stands below 50 nM.
Still for that read-out and setting: under `O=C(C(O)c1cccc(C(F)(F)F)c1F)N1CCc2nc(C3(c4cccs4)CC3)[nH]c(=O)c2C1` (stereo not shown) [15-16] stands below 50 nM; under `CC(C)(C)c1cccc(C(O)C(=O)N2CCc3nc(C4(c5cccs5)CC4)[nH]c(=O)c3C2)c1` (stereo not shown) [15-17], below 50 nM; under `O=C([C@H](O)c1cccc(C(F)(F)F)c1)N1CCc2nc(C3(c4cccs4)CC3)[nH]c(=O)c2C1` [15-18], below 50 nM.
As for `CC(C)c1csc(C2(c3nc4c(c(=O)[nH]3)CN(C(=O)C(O)c3cccc(C(C)(C)C)c3)CC4)CC2)c1` (stereo not shown) [15-24], the IC50 reads like this: under setting [1], below 50 nM; under setting [2], below 10 nM.
On the same counts, the results for `CC(C)c1csc(C2(c3nc4c(c(=O)[nH]3)CN(C(=O)C(O)c3cccc(C(F)(F)F)c3F)CC4)CC2)c1` (stereo not shown) [15-26] are below 50 nM and below 10 nM.
On the same counts, the results for `CC(C)c1csc(C2(c3nc4c(c(=O)[nH]3)CN(C(=O)C(O)c3cccc(Cl)c3F)CC4)CC2)c1` (stereo not shown) [15-27] are below 50 nM and below 3 nM.
With `O=C(C(O)c1cccc(-c2cccc(OC(F)(F)F)c2)c1)N1CCc2nc(C3(c4cccs4)CC3)[nH]c(=O)c2C1` (stereo not shown) [15-28], the IC50 is, setting by setting: under setting [1], below 50 nM; under setting [2], below 3 nM.
On the same counts, the results for `O=C([C@H](O)c1cccc(Cl)c1)N1CCc2nc(C3(c4cncc(-c5ccccc5)c4)CC3)[nH]c(=O)c2C1` [16-1] are below 50 nM and below 3 nM.
On the same counts, the results for `O=C(C(O)c1cccc(C(F)(F)F)c1F)N1CCc2nc(C3(c4cncc(-c5ccccc5)c4)CC3)[nH]c(=O)c2C1` (stereo not shown) [16-2] are below 50 nM and below 10 nM.
In the same order, the values of `C=C(C)c1cccc(C2(c3nc4c(c(=O)[nH]3)CN(C(=O)[C@H](O)c3cccc(C(F)(F)F)c3)CCC4)CC2)c1` [17-1] are below 50 nM and below 3 nM.
As to `O=C([C@H](O)c1cccc(C(F)(F)F)c1)N1CCCc2nc(C3(c4cccc(C(F)(F)F)c4)CC3)[nH]c(=O)c2C1` [17-3], the IC50 was below 50 nM under setting [1] and below 3 nM under setting [2].
`O=C(C(O)c1cccc(C(F)(F)F)c1F)N1CCCc2nc(C3(c4cccc(Cl)c4)CC3)[nH]c(=O)c2C1` (stereo not shown) [17-4]: the IC50 under setting [1] is below 50 nM and the half-maximal inhibitory concentration (IC50) under setting [2] was below 3 nM.
As for `O=C(C(O)c1cccc(-c2cccc(F)c2)c1)N1CCCc2nc(C3(c4cccc(Cl)c4)CC3)[nH]c(=O)c2C1` (stereo not shown) [17-5], the IC50 was below 50 nM under setting [1] and below 3 nM under setting [2].
In the same order, the values of `O=C([C@H](O)c1cccc(C(F)(F)F)c1)N1CCCc2nc(C3(c4cccc(OC(F)(F)F)c4)CC3)[nH]c(=O)c2C1` [17-6] are below 50 nM and below 3 nM.
On the same counts, the results for `O=C(C(O)c1cccc(Cl)c1F)N1CCCc2nc(C3(c4cccc(Cl)c4)CC3)[nH]c(=O)c2C1` (stereo not shown) [17-7] are below 50 nM and below 3 nM.
In the same order, the values of `CC(C)c1cccc(C2(c3nc4c(c(=O)[nH]3)CN(C(=O)C(O)c3cccc(C(C)(C)C)c3)CCC4)CC2)c1` (stereo not shown) [17-8] are below 50 nM and below 3 nM.
For the molecule `CC(C)c1cccc(C2(c3nc4c(c(=O)[nH]3)CN(C(=O)C(O)c3cccc(C(F)(F)F)c3F)CCC4)CC2)c1` (stereo not shown) [17-9], the IC50 by setting is: under setting [1], below 50 nM; under setting [2], below 10 nM.
With `O=C(C(O)c1cccc(C(F)(F)F)c1F)N1CCCc2nc(C3(c4cccc(F)c4)CC3)[nH]c(=O)c2C1` (stereo not shown) [17-10], the IC50 is below 50 nM under setting [1] and below 10 nM under setting [2].
